# Tests used:
# SAH rats [1] = assay: Short-term neurological function of SAH rats (Garcia score, beam balance test, bleeding score); format: in vivo, rat; conditions: SAH model, 24 hours after modeling; group O, α-asarone emulsion oral administration 40 mg/kg
# SAH rats [2] = assay: Secondary epilepsy in SAH rats (Racine score, seizures); format: in vivo, rat; conditions: within 24 hours after SAH
# Procedure: The experimental materials, grouping, modeling method and administration protocol were the same as those in the effect embodiment 1, and the seizures of rats in each group were observed within 24 hours after SAH.
# SAH rats [3] = assay: Morris water maze and brain tissue atrophy of SAH rats in recovery phase; format: in vivo, rat
# Procedure: Morris water maze was used to evaluate the long-term spatial perception and memory ability of rats in each group, and was performed after the survival observation, i.e., 15 to 19 days after SAH. The water maze was a circular pool with a diameter of 150 cm and a depth of 60 cm. Before the experiment, warm water (24±2)° C. was filled to a depth of 30 cm and colored black with ink. The pool was equally divided into four quadrants, and different signs were pasted on the walls of different quadrants to indicate the difference. A transparent platform with a diameter of 10 cm and a height of 28 cm was placed in the center of one quadrant, and was 2 cm beneath the water. Rats were released from the designated quadrant according to the experimental guidelines. On day 1 to 4, rats were successively released into water from four corresponding quadrants with a 10-minute interval. If the rat found the platform within 60 seconds, it was allowed to remain there for 10 seconds; if not, it was guided to the platform with a rod and allowed to stand there for 10 seconds. On day 5, the platform was removed and the rats were allowed to swim freely for 60 seconds. The escape latency, swimming speed and dwelling time on the target quadrant were recorded using a computerized tracking system (Noldus Ethovision, Tacoma, WA, USA).
# SAH rats [4] = assay: Ca2+ level and mitochondrial membrane potential in brain tissue, SAH rats; format: in vivo, rat; conditions: 12-24 hours after operation, group M
# Procedure: The rats were decapitated to collect the brain 12 to 24 hours after modeling. The brain cortex around the hematoma was immediately taken to prepare a single cell suspension by enzymatic digestion (papain: 2 mg/mL; DNAase I: 0.05 mg/mL), with the cell concentration was adjusted to 5×10^6 cells/mL. 100 μL of cell suspension was incubated with 5 μM Fluo-3/AM dye solution or 10 μM Rhodamine 123 dye solution at 37° C. for 45 min. Then the cells were washed twice with PBS (phosphate buffer, pH=7.2-7.4), resuspended with 0.5 mL of PBS, and detected by a flow cytometry at the excitation wavelength of 506 nm and the emission wavelength of 526 nm. The mean fluorescence intensity of Fluo-3 and Rh123 in 10,000 cells was analyzed by FlowJo software.
# [5] = Toxic and side effects observed during all the experiments; format: in vivo; conditions: during all the experiments of the disclosure
# SAH rats [6] = assay: Glutamate and GABA content in brain tissue, SAH rats; format: in vivo, rat; conditions: 12 to 24 hours after operation, group M
# Procedure: The rats were deeply anesthetized, and decapitated to collect the brain at 12-24 hours after modeling. Then about 60 to 120 mg of brain cortex on the hemorrhagic side were weighed, homogenized with 10 times the volume of ice-cold centrifuge buffer for biochemical detection, homogenized for 10 min in an ice bath, and centrifuged at 4° C. for 30 minutes (14,000 rpm/min). The contents of glutamate and GABA in the supernatant were detected according to the instructions of glutamate content detection kit and rat GABA Elisa kit.
# ICH rats = assay: Short-term neurological function of ICH rats (Garcia score, beam balance test); format: in vivo, rat; conditions: ICH model; for Beam balance score / Garcia score: 24 hours after modeling
# Procedure: Experimental grouping: At 2 h after endovascular perforation or collagenase VII injection, Zea Longa score was used to evaluate the neurological function of rats. Successful model rats were randomly divided into groups for administration.
# All groups were administrated through the tail vein injection except for group N administrated intraperitoneally.
# The rats were fasted for 12 hours before operation, and were anesthetized with 4% isoflurane, and kept anesthetized with 2% isoflurane. The animals were fixed in the prone position in a stereotaxic apparatus with the body temperature maintained at about 37° C. A traditional skin incision of the head was prepared along the midline. According to the stereotaxic atlas of the rat brain translated by Zhuge Qichao (George Paxinos, Charles Watson, Paxinos, Watson, & Zhuge Qichao. The Rat Brain in Stereotaxic Coordinates [M]. People's Medical Publishing House, 2005), the right caudate nucleus of the rat was determined as 0.0 mm anterior, 3.0 mm lateral to the bregma, and 5.5 mm ventral to the cortical surface. After labeling, we drilled an open window in the skull, and 1 μL of 0.5 U collagenase VII was slowly injected for 5 minutes with a microinjector. After the injection, the needle was stagnated for 8 minutes and slowly withdrawn. Then the scalp was sutured after the burr hole of skull was sealed with a sterile bone wax, and the rats were returned to the cage for normal feeding. The sham group conducted the same procedure as the model group, but received an equal volume of physiological saline into the caudate nucleus.
# According to Zea Longa's neurological function score, the rats were scored 2 hours after the operation when they were awake from anesthesia. Successful model rats with a score of 1 to 3 points were enrolled in the group: • 0 points: no neurological deficits with normal activity; • 1 point: inability to fully extend the contralateral forepaw; • 2 points: the animal appears to turn in circles when crawling; • 3 points: the animal tends to lean to the hemiplegic side; • 4 points: the animal cannot walk spontaneously or loses consciousness. 1.4 Assessment of Short-Term Neurological Function
# The neurological function of rats was comprehensively evaluated with Garcia score and beam balance test 24 hours after modeling. The criteria of Garcia score are shown in Table 1, which evaluates the movement, sensation, climbing and limb symmetry of the rats with the score range of 3 to 18 points. The lower the score, the more severe the neurological injury. The criteria of the beam balance test are shown in Table 2, which evaluated the proprioception and body coordination of rats with the score range of 0 to 6 points. The higher the score, the more severe the neurological injury. Scoring was done independently by a technician blinded to the modeling and drug administration.
# [7] = group H, α-asarone emulsion injection 30 mg/kg tail vein
# [8] = group L, α-asarone emulsion injection 7.5 mg/kg tail vein
# [9] = group M, α-asarone emulsion injection 15 mg/kg tail vein
# [10] = group O, α-asarone emulsion oral administration 40 mg/kg
smiles,measurement,setting,value
"C/C=C/c1cc(OC)c(OC)cc1OC [α-asarone, trans-2,4,5-trimethoxy-1-propenylbenzene]",Beam balance score,SAH rats [1],3.30
same,Garcia score,SAH rats [1],10.94
same,incidence of secondary epilepsy,SAH rats [2],significantly reduce
same,Clonic seizures (%),SAH rats [2]; [7],8.0%
same,Racine score,SAH rats [2]; [7],0.73 ± 1.44
same,Tonic seizures (%),SAH rats [2]; [7],6.7%
same,Clonic seizures (%),SAH rats [2]; [8],6.7%
same,Racine score,SAH rats [2]; [8],0.53 ± 1.46
same,Tonic seizures (%),SAH rats [2]; [8],6.7%
same,Clonic seizures (%),SAH rats [2]; [9],5.6%
same,Racine score,SAH rats [2]; [9],0.44 ± 1.34
same,Tonic seizures (%),SAH rats [2]; [9],5.6%
same,Clonic seizures (%),SAH rats [2]; [10],15.4%
same,Racine score,SAH rats [2]; [10],0.77 ± 1.59
same,Tonic seizures (%),SAH rats [2]; [10],7.7%
same,escape latency during the training period,"SAH rats [3]; Morris water maze, 15 to 19 days after SAH, group M, vs group S",significantly decreased
same,swimming speed,"SAH rats [3]; Morris water maze, group M vs group S (P<0.05)",significantly faster
same,"time in the target quadrant, spatial probe test","SAH rats [3]; Morris water maze, group M, vs group S",notably prolonged
same,brain atrophy,"SAH rats [3]; SAH rats after long-term administration, group M",significantly rescued
same,calcium level in brain tissue,SAH rats [4]; Fluo-3 flow cytometry,significantly reduce
same,mitochondrial membrane potential in brain tissue,SAH rats [4]; Rhodamine 123 flow cytometry,stabilize
same,toxic and side effects,[5],no obvious toxic and side effects
same,GABA content in the hemorrhagic brain tissue,SAH rats [6],significantly reduce
same,glutamate content in the hemorrhagic brain tissue,SAH rats [6],significantly reduce
same,Beam balance score,ICH rats; [7],3.31
same,Garcia score,ICH rats; [7],10.01
same,Beam balance score,ICH rats; [8],3.16
same,Garcia score,ICH rats; [8],10.60
same,Beam balance score,ICH rats; [9],3.09
same,Garcia score,ICH rats; [9],10.68
same,curative effect compared with group V (vinpocetine) and group N (nimodipine),"ICH rats; groups L and M, 7.5 and 15 mg/kg",better

# From patent US12636260B2, “Application of α-asarone in preparation of medicine for preventing or treating hemorrhagic stroke” (CHENGDU XINRUI TAIKANG TECHNOLOGY CO., LTD., priority 2021, dated 2026)
